According to ChEMBL document CHEMBL3853264 (Medchemcomm, 2016):
pIC50: −log10 of the molar value. In brackets after ≈: the same amount, converted by molar mass.

Tests used:
[1] = Intrinsic clearance in human hepatocytes assessed per 10^6 cells; type: ADME, cell-based, Hepatocyte; conditions: read-out: CLH
[2] = test system: Canis familiaris; assay: Hepatotoxicity in female dog assessed as decrease in alanine aminotransferase levels at >= 100 mg/kg/day, po measured over 14 days; type: toxicity, organism-based, Canis lupus familiaris; conditions: in vivo, 336 h
[3] = Volume of distribution at steady state in rat at 0.76 mg/kg, iv and 2.3 mg/kg, po; type: ADME, organism-based; conditions: in vivo, read-out: Vdss
[4] = Mutagenicity in […] by Ames test in presence of […] fraction; type: toxicity
[5] = Fraction unbound in rat plasma; type: ADME, cell-free
[6] = Drug metabolism in dog assessed as loss of chlorobenzonitrile moiety in presence of glutathione; type: ADME, Canis lupus familiaris
[7] = test system: Rattus norvegicus; assay: Cardiovascular toxicity in rat assessed as decrease in body temperature at 10 mg/kg, po measured over 14 days; type: organism-based; conditions: in vivo, 336 h
[8] = Fraction unbound in dog plasma; type: ADME, cell-free, Canis lupus familiaris
[9] = biological target: Sodium channel protein type 5 subunit alpha (Homo sapiens, UniProt Q14524); assay: Inhibition of human NaV1.5 expressed in HEK293 cells by patch clamp method; type: cell-based
[10] = Half life in rat at 0.76 mg/kg, iv and 2.3 mg/kg, po; type: ADME, organism-based; conditions: in vivo
[11] = Drug metabolism in dog assessed as oxidation of chlorophenyl ring; type: ADME, Canis lupus familiaris
[12] = Drug metabolism in human hepatocytes assessed as oxidation of chlorophenyl ring; type: ADME, cell-based, Hepatocyte
[13] = biological target: Organic anion transporter 3 (Homo sapiens, UniProt Q8TCC7); assay: Inhibition of OAT3 (unknown origin)
[14] = Average plasma concentration in dog at 30 mg/kg, po administered as single dose measured on day 14; type: ADME, organism-based, Canis lupus familiaris; conditions: in vivo
[15] = test system: Rattus norvegicus; assay: Toxicity in rat assessed as hypertrophy/hyperplasia of the urothelium at 300 mg/kg/day, po measured over 14 days by microscopic analysis; type: organism-based; conditions: in vivo, 336 h
[16] = biological target: Cytochrome P450 2D6 (Homo sapiens, UniProt P10635); assay: Inhibition of CYP2D6 (unknown origin); type: ADME
[17] = Half life in rat at 0.5 mg/kg, iv and 1 mg/kg, po; type: ADME, organism-based; conditions: in vivo
[18] = Cytotoxicity against THLE cells; type: toxicity, cell-based; conditions: human
[19] = Plasma clearance in rat at 0.76 mg/kg, iv and 2.3 mg/kg, po; type: ADME, organism-based
[20] = Unbound Cmax in rat at 10 mg/kg, po administered as single dose measured on day 14; type: ADME, organism-based; conditions: in vivo
[21] = Intrinsic clearance in human liver microsomes; type: ADME; conditions: read-out: CLH
[22] = Drug metabolism in human liver microsomes assessed as oxidation of chlorophenyl ring; type: ADME
[23] = Intrinsic clearance in rat liver microsomes; type: ADME; conditions: read-out: CLH
[24] = biological target: Solute carrier organic anion transporter family member 2B1 (Homo sapiens, UniProt O94956); assay: Drug uptake assessed as human OATP2B1-mediated drug accumulation by cell-based assay relative to wild type protein; type: ADME
[25] = Solubility of the compound at pH 6.5; type: physicochemical; conditions: buffer

Organic anion transporter 3, sequence (Q8TCC7 whole entry): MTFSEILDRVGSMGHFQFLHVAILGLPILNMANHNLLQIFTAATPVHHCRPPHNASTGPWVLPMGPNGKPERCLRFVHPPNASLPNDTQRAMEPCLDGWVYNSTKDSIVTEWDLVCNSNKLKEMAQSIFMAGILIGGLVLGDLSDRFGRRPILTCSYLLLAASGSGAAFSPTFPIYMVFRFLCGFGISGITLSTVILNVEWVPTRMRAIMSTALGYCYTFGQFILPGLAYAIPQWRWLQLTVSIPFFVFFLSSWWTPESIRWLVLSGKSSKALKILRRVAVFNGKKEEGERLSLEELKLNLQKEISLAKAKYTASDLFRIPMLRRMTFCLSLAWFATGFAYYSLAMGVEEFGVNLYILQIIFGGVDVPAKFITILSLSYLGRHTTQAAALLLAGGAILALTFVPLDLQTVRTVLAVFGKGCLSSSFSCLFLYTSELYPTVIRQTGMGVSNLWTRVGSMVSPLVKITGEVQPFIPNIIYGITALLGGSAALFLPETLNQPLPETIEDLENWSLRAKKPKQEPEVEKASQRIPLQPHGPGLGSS
Sodium channel protein type 5 subunit alpha, sequence (Q14524 whole entry): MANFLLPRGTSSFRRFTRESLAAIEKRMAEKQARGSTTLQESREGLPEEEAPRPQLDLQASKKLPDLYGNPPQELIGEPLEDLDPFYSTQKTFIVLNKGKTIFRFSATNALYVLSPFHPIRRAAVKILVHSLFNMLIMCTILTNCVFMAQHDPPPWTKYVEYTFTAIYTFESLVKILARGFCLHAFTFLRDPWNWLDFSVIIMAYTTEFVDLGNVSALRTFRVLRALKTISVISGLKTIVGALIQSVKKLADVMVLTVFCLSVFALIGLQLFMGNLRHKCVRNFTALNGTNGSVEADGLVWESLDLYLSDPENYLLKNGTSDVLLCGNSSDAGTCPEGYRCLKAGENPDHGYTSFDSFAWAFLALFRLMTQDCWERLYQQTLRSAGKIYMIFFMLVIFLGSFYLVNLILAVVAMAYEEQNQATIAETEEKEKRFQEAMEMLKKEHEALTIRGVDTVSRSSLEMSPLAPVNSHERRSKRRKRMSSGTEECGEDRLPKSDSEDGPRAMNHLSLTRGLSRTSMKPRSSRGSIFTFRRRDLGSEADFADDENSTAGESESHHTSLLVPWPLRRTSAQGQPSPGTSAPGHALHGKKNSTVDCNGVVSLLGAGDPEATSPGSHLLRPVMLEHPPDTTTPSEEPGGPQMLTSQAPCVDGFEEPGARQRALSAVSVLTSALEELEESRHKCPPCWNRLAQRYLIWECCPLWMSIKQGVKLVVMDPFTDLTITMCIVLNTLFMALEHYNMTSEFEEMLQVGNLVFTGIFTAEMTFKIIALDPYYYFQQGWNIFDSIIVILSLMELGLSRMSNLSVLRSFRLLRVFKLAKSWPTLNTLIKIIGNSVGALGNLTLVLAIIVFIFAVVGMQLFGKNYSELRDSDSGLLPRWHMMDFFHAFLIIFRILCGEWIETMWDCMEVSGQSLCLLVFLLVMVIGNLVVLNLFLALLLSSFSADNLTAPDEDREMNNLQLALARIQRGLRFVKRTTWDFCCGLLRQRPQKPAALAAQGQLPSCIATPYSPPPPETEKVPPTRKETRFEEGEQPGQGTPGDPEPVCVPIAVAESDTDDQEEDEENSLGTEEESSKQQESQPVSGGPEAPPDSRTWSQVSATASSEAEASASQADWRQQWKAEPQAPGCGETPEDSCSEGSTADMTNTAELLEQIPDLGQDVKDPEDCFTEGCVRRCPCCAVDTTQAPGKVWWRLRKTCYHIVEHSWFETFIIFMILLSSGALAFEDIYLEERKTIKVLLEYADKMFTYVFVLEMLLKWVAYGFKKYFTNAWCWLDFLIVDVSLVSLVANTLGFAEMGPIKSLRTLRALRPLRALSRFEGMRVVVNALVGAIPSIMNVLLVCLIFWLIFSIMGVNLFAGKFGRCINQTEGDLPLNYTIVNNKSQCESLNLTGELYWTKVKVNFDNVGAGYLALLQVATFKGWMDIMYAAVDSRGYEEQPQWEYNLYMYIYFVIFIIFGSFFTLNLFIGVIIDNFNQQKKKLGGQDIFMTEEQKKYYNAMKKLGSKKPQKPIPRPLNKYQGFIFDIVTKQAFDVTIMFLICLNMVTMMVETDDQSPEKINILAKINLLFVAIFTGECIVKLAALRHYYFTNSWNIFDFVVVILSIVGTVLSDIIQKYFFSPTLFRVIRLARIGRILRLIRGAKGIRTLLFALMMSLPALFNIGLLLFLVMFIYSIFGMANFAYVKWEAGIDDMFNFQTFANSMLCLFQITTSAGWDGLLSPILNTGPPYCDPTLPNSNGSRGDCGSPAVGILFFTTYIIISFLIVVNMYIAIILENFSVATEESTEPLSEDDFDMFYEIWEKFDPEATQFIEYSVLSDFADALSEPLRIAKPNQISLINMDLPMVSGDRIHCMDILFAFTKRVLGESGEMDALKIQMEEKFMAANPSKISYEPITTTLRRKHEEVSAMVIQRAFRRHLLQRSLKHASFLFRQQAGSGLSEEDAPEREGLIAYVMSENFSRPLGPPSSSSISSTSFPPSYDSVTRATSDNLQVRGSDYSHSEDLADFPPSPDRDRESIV
Solute carrier organic anion transporter family member 2B1, sequence (O94956 whole entry): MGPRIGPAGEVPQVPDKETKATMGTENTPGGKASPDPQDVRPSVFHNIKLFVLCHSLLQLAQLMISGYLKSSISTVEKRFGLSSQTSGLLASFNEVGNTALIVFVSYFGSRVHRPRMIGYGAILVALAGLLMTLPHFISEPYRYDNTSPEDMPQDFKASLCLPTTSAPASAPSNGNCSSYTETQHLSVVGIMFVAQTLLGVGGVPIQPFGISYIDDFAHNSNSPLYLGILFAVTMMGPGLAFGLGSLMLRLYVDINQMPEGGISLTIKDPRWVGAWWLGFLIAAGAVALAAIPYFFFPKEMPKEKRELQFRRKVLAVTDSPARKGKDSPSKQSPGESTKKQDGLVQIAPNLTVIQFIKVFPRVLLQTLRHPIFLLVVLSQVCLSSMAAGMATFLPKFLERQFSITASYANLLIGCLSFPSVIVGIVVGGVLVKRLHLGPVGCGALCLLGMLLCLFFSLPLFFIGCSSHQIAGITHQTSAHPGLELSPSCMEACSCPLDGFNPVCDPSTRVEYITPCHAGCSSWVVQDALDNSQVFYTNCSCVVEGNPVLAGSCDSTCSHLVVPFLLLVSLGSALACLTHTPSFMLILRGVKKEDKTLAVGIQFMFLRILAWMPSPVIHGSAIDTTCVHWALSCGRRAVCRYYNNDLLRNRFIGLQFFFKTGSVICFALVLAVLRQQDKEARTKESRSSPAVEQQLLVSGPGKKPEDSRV
Cytochrome P450 2D6, sequence (P10635 whole entry): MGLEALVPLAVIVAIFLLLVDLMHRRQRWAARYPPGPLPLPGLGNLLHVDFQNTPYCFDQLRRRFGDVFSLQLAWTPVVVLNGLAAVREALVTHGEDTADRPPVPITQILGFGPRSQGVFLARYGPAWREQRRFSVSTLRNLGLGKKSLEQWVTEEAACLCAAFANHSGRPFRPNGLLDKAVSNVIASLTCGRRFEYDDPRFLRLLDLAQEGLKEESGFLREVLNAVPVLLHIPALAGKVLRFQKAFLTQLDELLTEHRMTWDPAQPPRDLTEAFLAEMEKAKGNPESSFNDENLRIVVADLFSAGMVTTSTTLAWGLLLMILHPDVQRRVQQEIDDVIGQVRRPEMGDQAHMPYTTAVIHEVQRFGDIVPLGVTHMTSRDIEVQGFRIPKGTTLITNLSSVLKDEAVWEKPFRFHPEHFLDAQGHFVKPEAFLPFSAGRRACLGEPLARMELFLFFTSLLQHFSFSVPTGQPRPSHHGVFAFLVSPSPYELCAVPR

SMILES: N#Cc1ccc(Oc2ccc(S(=O)(=O)Nc3ccc(F)cn3)cc2C#N)cc1Cl
- hepatocyte CLint [1]: 23 µL/min/1e6 cells
- Activity [2]: Toxic
- Vd [3]: 0.25 L/kg
- Activity [4]: Non-Toxic
- fraction unbound [5]: 0.0021
- Drug metabolism [6]: Metabolite_Detected
- Activity [7]: Toxic
- fraction unbound [8]: 0.0041
- pIC50 [9]: < 4.52
- half-life [10]: 7.1 h
- Drug metabolism [11]: Metabolite_Notdetected
- Drug metabolism [12]: Metabolite_Detected
- pIC50 [13]: 6.14
- Cave [14]: 3.98 µM
- Activity [15]: Toxic
- pIC50 [16]: < 4.52
- half-life [17]: 6.7 h
- Activity [18]: 103 µM
- clearance [19]: 0.48 mL/min/kg
- fCmax [20]: 59 nM
- microsomal CLint [21]: < 13 µL/min/mg
- Drug metabolism [22]: Metabolite_Detected
- microsomal CLint [23]: < 14 µL/min/mg
- fold change (FC) [24]: 1.232
- solubility [25]: 7.7 µM (≈ 3.3 µg/mL)
